Test results: ChEMBL document CHEMBL3627608, “Crystal structures of human RIP2 kinase catalytic domain complexed with ATP-competitive inhibitors: Foundations for understanding inhibitor selectivity” (Bioorg Med Chem, 2015)

Experiments:
[1] = target: Citron Rho-interacting kinase (Homo sapiens) (UniProt O14578); test: Inhibition of STK21 (unknown origin) at 10 uM after 120 mins P33 radiolabeled kinase activity assay
[2] = target: MAP kinase-interacting serine/threonine-protein kinase 1 (Homo sapiens) (UniProt Q9BUB5); test: Inhibition of MNK1 (unknown origin) at 10 uM after 120 mins P33 radiolabeled kinase activity assay
Sequence of MAP kinase-interacting serine/threonine-protein kinase 1 (Homo sapiens) (Q9BUB5 whole entry, looked up): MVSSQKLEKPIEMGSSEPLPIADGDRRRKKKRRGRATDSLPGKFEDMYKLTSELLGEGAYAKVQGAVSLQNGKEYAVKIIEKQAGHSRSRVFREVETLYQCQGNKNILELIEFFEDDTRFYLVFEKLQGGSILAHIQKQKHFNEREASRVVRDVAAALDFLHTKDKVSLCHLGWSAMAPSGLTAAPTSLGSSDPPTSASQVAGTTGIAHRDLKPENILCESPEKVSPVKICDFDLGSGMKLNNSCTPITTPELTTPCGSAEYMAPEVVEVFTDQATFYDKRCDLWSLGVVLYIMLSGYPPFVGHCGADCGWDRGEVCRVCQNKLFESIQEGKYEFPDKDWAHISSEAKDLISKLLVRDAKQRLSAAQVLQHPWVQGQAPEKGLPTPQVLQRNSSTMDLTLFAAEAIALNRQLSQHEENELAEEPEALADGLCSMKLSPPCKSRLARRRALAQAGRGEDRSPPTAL

[3] = target: Serine/threonine-protein kinase 33 (Homo sapiens) (UniProt Q9BYT3); test: Inhibition of STK33 (unknown origin) at 10 uM after 120 mins P33 radiolabeled kinase activity assay
Sequence of Serine/threonine-protein kinase 33 (Homo sapiens) (Q9BYT3 whole entry, looked up): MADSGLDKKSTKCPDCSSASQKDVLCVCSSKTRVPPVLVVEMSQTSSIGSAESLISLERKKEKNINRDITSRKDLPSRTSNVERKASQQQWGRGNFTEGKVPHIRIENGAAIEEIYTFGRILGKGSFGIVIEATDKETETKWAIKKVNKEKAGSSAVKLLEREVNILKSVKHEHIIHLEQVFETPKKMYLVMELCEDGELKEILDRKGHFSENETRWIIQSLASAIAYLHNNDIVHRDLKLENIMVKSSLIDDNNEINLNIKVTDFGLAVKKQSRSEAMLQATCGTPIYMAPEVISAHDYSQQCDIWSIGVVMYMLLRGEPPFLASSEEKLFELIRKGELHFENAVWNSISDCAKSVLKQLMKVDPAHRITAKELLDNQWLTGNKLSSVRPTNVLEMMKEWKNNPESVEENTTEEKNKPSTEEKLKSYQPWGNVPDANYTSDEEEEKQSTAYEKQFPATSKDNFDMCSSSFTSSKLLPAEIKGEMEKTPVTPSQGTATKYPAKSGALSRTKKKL

[4] = target: T1, Serine/threonine-protein kinase DCLK2 (Homo sapiens) (UniProt Q8N568); test: Inhibition of DCAMKL2 (unknown origin) at 10 uM after 120 mins P33 radiolabeled kinase activity assay
T1 sequence (whole entry): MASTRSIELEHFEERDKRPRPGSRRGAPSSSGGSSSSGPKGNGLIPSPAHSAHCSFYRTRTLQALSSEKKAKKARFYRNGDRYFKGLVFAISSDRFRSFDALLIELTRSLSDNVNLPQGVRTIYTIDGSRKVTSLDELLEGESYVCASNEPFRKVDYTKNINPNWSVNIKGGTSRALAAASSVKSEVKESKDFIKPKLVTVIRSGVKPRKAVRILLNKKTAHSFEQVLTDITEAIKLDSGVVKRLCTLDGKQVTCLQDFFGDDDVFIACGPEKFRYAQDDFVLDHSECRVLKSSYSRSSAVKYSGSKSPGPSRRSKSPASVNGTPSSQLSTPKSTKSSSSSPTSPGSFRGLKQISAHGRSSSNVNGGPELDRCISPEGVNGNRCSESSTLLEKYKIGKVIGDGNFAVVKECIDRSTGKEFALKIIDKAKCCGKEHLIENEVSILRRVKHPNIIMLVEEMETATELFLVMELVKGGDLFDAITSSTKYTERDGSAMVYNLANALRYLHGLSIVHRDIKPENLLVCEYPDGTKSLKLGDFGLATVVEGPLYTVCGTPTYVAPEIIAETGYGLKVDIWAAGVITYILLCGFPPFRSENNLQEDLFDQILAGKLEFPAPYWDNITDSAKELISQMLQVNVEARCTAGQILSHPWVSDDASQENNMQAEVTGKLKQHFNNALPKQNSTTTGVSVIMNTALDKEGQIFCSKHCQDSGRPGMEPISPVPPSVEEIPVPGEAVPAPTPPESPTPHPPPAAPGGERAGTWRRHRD

[5] = target: T2, Serine/threonine-protein kinase Sgk1 (Homo sapiens) (UniProt O00141); test: Inhibition of SGK1 (unknown origin) at 10 uM after 120 mins P33 radiolabeled kinase activity assay
T2 sequence (whole entry): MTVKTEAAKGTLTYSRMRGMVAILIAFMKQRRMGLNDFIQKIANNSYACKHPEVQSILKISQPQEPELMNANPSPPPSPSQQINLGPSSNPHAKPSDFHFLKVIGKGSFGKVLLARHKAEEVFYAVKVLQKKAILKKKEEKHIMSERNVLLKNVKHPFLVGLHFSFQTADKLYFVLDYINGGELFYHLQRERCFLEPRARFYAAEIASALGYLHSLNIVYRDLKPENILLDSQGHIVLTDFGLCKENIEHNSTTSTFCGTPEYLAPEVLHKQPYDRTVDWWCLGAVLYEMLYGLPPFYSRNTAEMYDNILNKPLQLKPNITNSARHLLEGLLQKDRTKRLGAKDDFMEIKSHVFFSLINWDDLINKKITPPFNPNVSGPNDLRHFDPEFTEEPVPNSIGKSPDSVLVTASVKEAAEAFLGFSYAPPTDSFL

[6] = target: Serine/threonine-protein kinase MRCK gamma (Homo sapiens) (UniProt Q6DT37); test: Inhibition of DMPK2 (unknown origin) at 10 uM after 120 mins P33 radiolabeled kinase activity assay
Sequence of Serine/threonine-protein kinase MRCK gamma (Homo sapiens) (Q6DT37 whole entry): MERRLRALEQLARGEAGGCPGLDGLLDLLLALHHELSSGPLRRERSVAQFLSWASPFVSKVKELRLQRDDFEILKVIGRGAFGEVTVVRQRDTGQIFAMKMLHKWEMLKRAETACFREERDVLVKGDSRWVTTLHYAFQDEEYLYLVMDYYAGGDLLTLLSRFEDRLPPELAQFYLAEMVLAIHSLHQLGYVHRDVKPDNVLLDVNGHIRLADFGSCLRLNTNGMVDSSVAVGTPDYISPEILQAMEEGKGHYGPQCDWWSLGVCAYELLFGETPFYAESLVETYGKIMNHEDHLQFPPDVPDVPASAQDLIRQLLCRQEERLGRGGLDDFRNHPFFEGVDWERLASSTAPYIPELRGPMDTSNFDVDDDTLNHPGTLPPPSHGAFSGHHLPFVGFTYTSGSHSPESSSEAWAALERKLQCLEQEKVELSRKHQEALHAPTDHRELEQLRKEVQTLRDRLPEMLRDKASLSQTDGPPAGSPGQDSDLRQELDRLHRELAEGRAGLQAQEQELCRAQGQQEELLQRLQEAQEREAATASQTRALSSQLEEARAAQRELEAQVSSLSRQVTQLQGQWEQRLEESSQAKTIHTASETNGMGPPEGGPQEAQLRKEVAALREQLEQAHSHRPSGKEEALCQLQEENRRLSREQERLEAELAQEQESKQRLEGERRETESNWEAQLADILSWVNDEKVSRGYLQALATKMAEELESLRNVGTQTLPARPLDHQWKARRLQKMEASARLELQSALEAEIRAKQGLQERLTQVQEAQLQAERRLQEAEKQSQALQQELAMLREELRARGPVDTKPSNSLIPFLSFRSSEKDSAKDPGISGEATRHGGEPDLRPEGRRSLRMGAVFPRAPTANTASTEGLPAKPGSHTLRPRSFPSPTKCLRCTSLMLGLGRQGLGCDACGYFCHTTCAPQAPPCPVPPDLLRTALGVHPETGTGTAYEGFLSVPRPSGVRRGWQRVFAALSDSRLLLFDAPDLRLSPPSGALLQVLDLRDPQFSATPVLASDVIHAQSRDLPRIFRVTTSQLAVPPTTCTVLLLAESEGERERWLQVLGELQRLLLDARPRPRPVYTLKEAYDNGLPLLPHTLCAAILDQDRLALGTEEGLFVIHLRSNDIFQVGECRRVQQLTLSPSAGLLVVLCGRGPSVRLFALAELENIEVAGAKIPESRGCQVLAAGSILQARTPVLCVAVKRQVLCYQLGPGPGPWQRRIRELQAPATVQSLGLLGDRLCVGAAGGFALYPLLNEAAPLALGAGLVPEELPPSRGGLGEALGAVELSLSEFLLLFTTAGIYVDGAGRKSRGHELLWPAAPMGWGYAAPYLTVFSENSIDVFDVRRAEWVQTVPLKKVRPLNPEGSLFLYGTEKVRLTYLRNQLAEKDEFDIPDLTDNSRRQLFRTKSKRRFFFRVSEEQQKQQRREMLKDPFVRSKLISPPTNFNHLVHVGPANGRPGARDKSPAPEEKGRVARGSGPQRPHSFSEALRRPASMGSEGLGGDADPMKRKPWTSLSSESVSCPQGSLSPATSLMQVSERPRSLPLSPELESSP

[7] = target: Tyrosine-protein kinase receptor UFO (Homo sapiens) (UniProt P30530); test: Inhibition of AXL (unknown origin) at 10 uM after 120 mins P33 radiolabeled kinase activity assay
Sequence of Tyrosine-protein kinase receptor UFO (Homo sapiens) (P30530 whole entry): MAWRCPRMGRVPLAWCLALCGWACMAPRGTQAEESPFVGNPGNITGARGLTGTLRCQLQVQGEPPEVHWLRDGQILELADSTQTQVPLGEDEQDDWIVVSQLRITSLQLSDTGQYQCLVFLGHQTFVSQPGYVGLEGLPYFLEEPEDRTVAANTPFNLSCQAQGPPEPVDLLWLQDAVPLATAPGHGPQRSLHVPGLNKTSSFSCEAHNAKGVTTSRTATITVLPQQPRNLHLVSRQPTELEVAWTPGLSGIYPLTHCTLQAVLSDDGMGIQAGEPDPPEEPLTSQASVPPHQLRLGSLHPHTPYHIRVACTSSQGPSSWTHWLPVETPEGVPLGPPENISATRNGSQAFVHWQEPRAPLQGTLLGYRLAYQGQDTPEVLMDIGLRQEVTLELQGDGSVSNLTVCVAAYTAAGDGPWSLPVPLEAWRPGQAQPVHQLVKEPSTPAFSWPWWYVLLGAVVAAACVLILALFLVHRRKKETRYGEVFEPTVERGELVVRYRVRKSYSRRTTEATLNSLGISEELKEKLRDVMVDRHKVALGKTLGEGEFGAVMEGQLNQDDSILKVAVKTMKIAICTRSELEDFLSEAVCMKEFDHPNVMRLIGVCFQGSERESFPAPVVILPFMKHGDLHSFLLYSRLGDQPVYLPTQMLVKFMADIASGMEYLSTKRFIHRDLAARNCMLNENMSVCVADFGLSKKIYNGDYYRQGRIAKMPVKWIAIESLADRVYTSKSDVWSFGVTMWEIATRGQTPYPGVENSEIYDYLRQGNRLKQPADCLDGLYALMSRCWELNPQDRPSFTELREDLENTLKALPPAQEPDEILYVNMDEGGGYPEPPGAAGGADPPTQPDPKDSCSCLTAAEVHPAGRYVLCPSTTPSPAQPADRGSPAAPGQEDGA

[8] = target: T3, Serine/threonine-protein kinase 4 (Homo sapiens) (UniProt Q13043); test: Inhibition of MST1 (unknown origin) at 10 uM after 120 mins P33 radiolabeled kinase activity assay
T3 sequence (whole entry): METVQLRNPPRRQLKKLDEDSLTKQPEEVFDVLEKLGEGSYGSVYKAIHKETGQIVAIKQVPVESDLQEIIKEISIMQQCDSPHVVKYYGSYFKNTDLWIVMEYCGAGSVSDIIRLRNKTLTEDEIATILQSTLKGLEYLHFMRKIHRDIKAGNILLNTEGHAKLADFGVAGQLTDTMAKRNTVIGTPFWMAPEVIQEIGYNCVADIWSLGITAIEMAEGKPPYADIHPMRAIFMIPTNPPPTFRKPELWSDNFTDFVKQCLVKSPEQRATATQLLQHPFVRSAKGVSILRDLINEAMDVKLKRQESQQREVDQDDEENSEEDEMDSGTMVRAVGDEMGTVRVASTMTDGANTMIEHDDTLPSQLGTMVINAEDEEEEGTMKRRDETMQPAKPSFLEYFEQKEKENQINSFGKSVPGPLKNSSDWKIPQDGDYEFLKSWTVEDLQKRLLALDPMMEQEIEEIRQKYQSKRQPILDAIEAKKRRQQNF

[9] = target: T4, Serine/threonine-protein kinase haspin (Homo sapiens) (UniProt Q8TF76); test: Inhibition of Haspin (unknown origin) at 10 uM after 120 mins P33 radiolabeled kinase activity assay
T4 sequence (whole entry): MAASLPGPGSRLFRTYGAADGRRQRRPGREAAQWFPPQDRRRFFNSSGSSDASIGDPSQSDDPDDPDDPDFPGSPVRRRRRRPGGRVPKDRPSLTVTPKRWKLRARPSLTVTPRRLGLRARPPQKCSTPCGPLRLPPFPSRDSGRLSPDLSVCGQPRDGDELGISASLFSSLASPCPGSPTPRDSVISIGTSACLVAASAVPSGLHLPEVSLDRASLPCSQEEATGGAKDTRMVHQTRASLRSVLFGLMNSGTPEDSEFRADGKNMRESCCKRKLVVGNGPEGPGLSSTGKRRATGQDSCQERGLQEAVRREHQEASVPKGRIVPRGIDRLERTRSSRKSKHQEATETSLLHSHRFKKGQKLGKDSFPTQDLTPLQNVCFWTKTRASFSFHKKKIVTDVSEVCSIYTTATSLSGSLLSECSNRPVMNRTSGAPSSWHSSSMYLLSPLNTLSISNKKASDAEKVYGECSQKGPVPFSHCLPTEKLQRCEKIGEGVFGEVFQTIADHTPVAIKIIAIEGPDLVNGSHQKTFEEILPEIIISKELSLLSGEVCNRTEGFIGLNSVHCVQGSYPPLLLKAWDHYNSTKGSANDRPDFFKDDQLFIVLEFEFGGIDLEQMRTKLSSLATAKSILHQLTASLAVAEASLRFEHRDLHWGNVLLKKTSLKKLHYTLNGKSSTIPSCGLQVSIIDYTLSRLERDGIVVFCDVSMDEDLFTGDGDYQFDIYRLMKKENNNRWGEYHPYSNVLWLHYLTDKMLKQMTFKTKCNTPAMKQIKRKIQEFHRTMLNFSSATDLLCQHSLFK

inhibition [1] [%]	inhibition [2] [%]	inhibition [3] [%]	inhibition [4] [%]	inhibition [5] [%]	inhibition [6] [%]	inhibition [7] [%]	inhibition [8] [%]	inhibition [9] [%]	Structure (SMILES)
-3.87	73	29.3	-1.11	30.1	-3.32	82.1	16	12.1	CS(=O)(=O)c1cccc(Nc2nccc(-c3sc(N4CCOCC4)nc3-c3cccc(NS(=O)(=O)c4c(F)cccc4F)c3)n2)c1
-5.27	28.7	10.6	-0.71	10.1	-3.48	7.68	9.73	11.4	COCCNC(=O)c1ccc2c(c1)nc(-c1cnc(-c3ccc(Cl)cc3)[nH]1)n2CCOC
-1.52	99.6	36.7	2.04	1.68	-1.44	86.6	11.5	12.3	CC(C)(C)c1cc(NC(=O)Nc2ccc(Oc3ccncc3)cc2)no1
